Laboratory results taken from article PMC11904993, “Humanized Candida and NanoBiT Assays Expedite Discovery of Bdf1 Bromodomain Inhibitors With Antifungal Potential” (Advanced Science, 2025).
“And” between values parts separate entries of the source, which are not always exact repeats. Equal entries are not always repeated. Where two headings read alike, the source gives them in different places.

Legend:
[1] = tested on: C. glabrata strains expressing WT and mutant Bdf1; test: Growth inhibition in liquid media, C. glabrata lab strains; conditions: Nakaseomyces glabratus, single experiments Exp1-3
Experimental: Growth on Liquid Media with C. glabrata Lab Strains: Cells were grown at 30 °C in SC+M+C‐U medium (SC medium with 5 mM methionine, 0.25 mM cysteine, without uracil) to an OD600 of 0.5–0.8. […] Plates were incubated at 30 °C and OD600 was measured using a Multiskan FC Microplate Photometer (Thermo Fisher).

CgBdf1 BD1 [2] = test: Histone peptide array assay; conditions: for Normalized (0 to 100%), WT / Normalized (0 to 100%), YF mutant: mean of the two raw values
Experimental: (§1) The array was prepared as described in the manufacturer's instructions. […] The array was then washed three times with binding buffer. Anti‐GST antibody (GE Healthcare) was used for the detection of GST‐tagged bromodomains.

human Brd4 BD1 = human Brd4 BD1 (Homo sapiens, UniProt O60885); test: HTRF assay, inhibition of H4ac4 peptide binding
CgBdf1 BD2 [3] = test: Histone peptide array assay; conditions: for Normalized (0 to 100%), WT / Normalized (0 to 100%), YF mutant: mean of the two raw values
Experimental: as §1

human Brd4 BD2 = target: T1, human Brd4 BD2 (Homo sapiens, UniProt O60885); test: HTRF assay, inhibition of H4ac4 peptide binding; conditions: Table S3; estimate, preliminary single-replicate HTRF assay; read-out: IC50 Brd4 BD2
T1 construct: GST‐tagged BD2 (residues 349–460) from human Brd4 (UniProt ID O60885); purchased Reaction Biology Corp

CgBdf1 BD2 [4] = target: CgBdf1 BD2 (Candida glabrata, UniProt Q6FWV7); test: biochemical; assay type: binding, C. glabrata
CgBdf1 BD1 [5] = target: CgBdf1 BD1 (Candida glabrata, UniProt Q6FWV7); test: HTRF assay, inhibition of H4ac4 peptide binding; parameters: species or system C. glabrata
[6] = peptide array signal, CgBdf1 BD1 WT, first replicate column
[7] = peptide array signal, CgBdf1 BD1 WT
[8] = peptide array signal, CgBdf1 BD1 WT, second replicate column
[9] = peptide array signal, CgBdf1 BD1 YF mutant, first replicate column
[10] = peptide array signal, CgBdf1 BD1 YF mutant
[11] = peptide array signal, CgBdf1 BD1 YF mutant, second replicate column
[12] = peptide array signal, CgBdf1 BD2 WT, first replicate column
[13] = peptide array signal, CgBdf1 BD2 WT
[14] = peptide array signal, CgBdf1 BD2 WT, second replicate column
[15] = peptide array signal, CgBdf1 BD2 YF mutant, first replicate column
[16] = peptide array signal, CgBdf1 BD2 YF mutant
[17] = peptide array signal, CgBdf1 BD2 YF mutant, second replicate column

Sequence of CgBdf1 BD1 (Candida glabrata, UniProt Q6FWV7) (Q6FWV7 entry or part of it): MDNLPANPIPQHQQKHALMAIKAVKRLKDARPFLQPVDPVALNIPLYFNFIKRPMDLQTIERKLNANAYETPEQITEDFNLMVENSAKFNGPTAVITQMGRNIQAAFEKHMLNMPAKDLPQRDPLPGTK
Sequence of CgBdf1 BD2 (Candida glabrata, UniProt Q6FWV7) (Q6FWV7 entry or part of it): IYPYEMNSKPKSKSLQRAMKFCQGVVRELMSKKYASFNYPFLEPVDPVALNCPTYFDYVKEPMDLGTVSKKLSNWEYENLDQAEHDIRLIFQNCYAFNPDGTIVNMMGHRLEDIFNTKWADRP

Structure (SMILES) | Raw data, WT (CgBdf1 BD1 [2]; [6]) | Normalized (0 to 100%), WT (CgBdf1 BD1 [2]; [7]) | Raw data, WT (CgBdf1 BD1 [2]; [8]) | Raw data, YF mutant (CgBdf1 BD1 [2]; [9]) | Normalized (0 to 100%), YF mutant (CgBdf1 BD1 [2]; [10]) | Raw data, YF mutant (CgBdf1 BD1 [2]; [11]) | Raw data, WT (CgBdf1 BD2 [3]; [12]) | Normalized (0 to 100%), WT (CgBdf1 BD2 [3]; [13]) | Raw data, WT (CgBdf1 BD2 [3]; [14]) | Raw data, YF mutant (CgBdf1 BD2 [3]; [15]) | Normalized (0 to 100%), YF mutant (CgBdf1 BD2 [3]; [16]) | Raw data, YF mutant (CgBdf1 BD2 [3]; [17]) | further results
COc1ccc(CNc2nc(-c3ccccc3)nnc2C)cc1 [Compound 10] | – | – | – | – | – | – | – | – | – | – | – | – | EC50 ([1]; read-out: pEC50 (WT BDF1), Fig 2D (converted), WT C. glabrata): 180 µM; EC50 ([1]; read-out: pEC50 growth inhibition, Fig 2C (converted), strain BD1 Y-F): 149 µM; Normalized (0 to 100%), WT, Average (CgBdf1 BD1 [2]; CgBdf1 BD1 WT, normalized peptide array signal): 2.21%; Raw data, WT, Left (CgBdf1 BD1 [2]; CgBdf1 BD1 WT, peptide array signal, left replicate): 0.006616; Raw data, WT, Rigt (CgBdf1 BD1 [2]; CgBdf1 BD1 WT, peptide array signal, right replicate): 0.03749; Normalized (0 to 100%), YF mutant, Average (CgBdf1 BD1 [2]; CgBdf1 BD1 YF mutant, normalized peptide array signal): 0.293%; Raw data, YF mutant, Left (CgBdf1 BD1 [2]; CgBdf1 BD1 YF mutant, peptide array signal, left replicate): 0.003085; Raw data, YF mutant, Right (CgBdf1 BD1 [2]; CgBdf1 BD1 YF mutant, peptide array signal, right replicate): 0.002776; IC50 (human Brd4 BD1): > 20 µM; Normalized (0 to 100%), WT, Average (CgBdf1 BD2 [3]; CgBdf1 BD2 WT, normalized peptide array signal): 0.608%; Raw data, WT, Left (CgBdf1 BD2 [3]; CgBdf1 BD2 WT, peptide array signal, left replicate): 0.004055; Raw data, WT, Rigt (CgBdf1 BD2 [3]; CgBdf1 BD2 WT, peptide array signal, right replicate): 0.00811; Normalized (0 to 100%), YF mutant, Average (CgBdf1 BD2 [3]; CgBdf1 BD2 YF mutant, normalized peptide array signal): 0.859%; Raw data, YF mutant, Left (CgBdf1 BD2 [3]; CgBdf1 BD2 YF mutant, peptide array signal, left replicate): 0.01319; Raw data, YF mutant, Right (CgBdf1 BD2 [3]; CgBdf1 BD2 YF mutant, peptide array signal, right replicate): 0.003988; IC50 (human Brd4 BD2): > 20 µM; IC50 (CgBdf1 BD2 [4]; Fig 2C original data, analogs of 24, single experiments Exp1-3, read-out: pIC50 CgBD2 (converted)): > 100 µM; IC50 (CgBdf1 BD2 [4]; Table S3, estimate, preliminary single-replicate HTRF assay, read-out: IC50 CgBdf1 BD2): > 20 µM; IC50 (CgBdf1 BD1 [5]; Fig 2C original data, analogs of 24, single experiments Exp1-3, read-out: pIC50 CgBD1 (converted)): 2.28 µM and 2.58 µM and 1.86 µM; IC50 (CgBdf1 BD1 [5]; Table S3, estimate, preliminary single-replicate HTRF assay, read-out: IC50 CgBdf1 BD1): 5 µM
Cc1ccc(C(=N)NN)cc1 [Compound 66] | 0.007561 | 2.32% | 0.03875 | 0.003085 | 0.308% | 0.003085 | 0.007798 | 0.717% | 0.00655 | 0.005521 | 0.276% | 0 | –
Cc1ccc(-c2nc(=O)c(C)n[nH]2)cc1 [Compound 67] | 0.09956 | 16% | 0.2253 | 0.002159 | 0.308% | 0.00401 | 0.06082 | 11% | 0.1541 | 0.007975 | 0.613% | 0.004294 | –
Cc1ccc(-c2nnc(C)c(Cl)n2)cc1 [Compound 68] | 0.003466 | 2.19% | 0.04033 | 0.003085 | 0.355% | 0.00401 | 0.004679 | 0.624% | 0.007798 | 0.004601 | 0.23% | 0 | –
